Data reported in patent publication US20240398759A1, “INHIBITING SEROTONIN TRANSPORTER PROTEIN (5-HTT)” (priority 2022, published 2024).
Read-outs that look alike come from different tables or passages of the source.

How the values were obtained:
mouse behavior = test: SmartCube system behavioral signature in mice; assay type: in vivo
Description: To confirm that compound 018 and Compound 019 has antidepressant effects, the SmartCube® system (Psychogenics, Inc., Paramus, NJ) was used. This system uses features derived from mouse behavioral data to classify compounds for their ability to treat neuro-psychiatric symptoms by comparing the features to a proprietary reference database of behavioral feature sets that are linked to classes of marketed drugs known to treat neuro-psychiatric symptoms. Thus the system can be used as a model to identify the psychiatric effect of a compound by comparing the effects of the compounds against drugs with known validated effects. By comparing the responses of animals to known drugs, the test drug can be categorized according to its function; for example, hallucinogen, anxiogenic, analgesic, cognitive enhancer, psychostimulant, mood stabilizer, high dose anti-psychotic, anti-psychotic, sedative/hypnotic, anxiolytic, high dose antidepressant, antidepressant.
Once all features are extracted from the raw data through an automated pipeline, proprietary bioinformatics algorithms are used to decorrelate groups of features and find the combination of values that best separate different groups of interest. For each compound, at each dose, they system provides a probability that the drug is active and breaks down such putative activity into the different classes of interest.
Mice were tested in the SmartCube® system where they were exposed to a sequence of challenges during the 45-minute test period. The cubes were cleaned between each run.
For class and subclass analysis, a reference data set has been built from hundreds of drug doses in multiple drug classes plus a control group. Each reference drug was tested at multiple doses appropriate for that drug in mice. The best performing classifiers were chosen from our evaluation tests and two separate types of classifiers were built that make independent predictions at drug class and subclass levels. The Class consists of drugs that are currently in the market or have been clinically validated for that specific indication. The sub-class consists of both marketed drugs and other compounds that have been mechanistically validated and is a larger set than the Class.
Data was processed using proprietary computer vision and data mining algorithms and the results were compared to signatures of the reference compounds in our database. Multiple analyses of the data was performed to quantitatively produce independent predictions of drug class, and drug subclass. The behavioral signatures of the test drug were evaluated using these classifiers to predict potential therapeutic utility.

PDE4B2 = PDE4B2 (Homo sapiens (Human), UniProt Q07343); test: PDE4 inhibition assay (fluorescence polarization), PDE4B2; assay type: biochemical
Procedure: (§1) 100 μM dilutions of the test compounds were prepared in assay buffer (10% DMSO concentration) and 5 μl of the dilution was added to a 50 μl reaction so that the final concentration of DMSO is 1% in all of reactions. The enzymatic reactions were conducted at room temperature for 60 minutes in a 50 μl mixture containing PDE assay buffer, 100 nM FAM-cAMP, a PDE enzyme (Table 2.3.1) and the test compound (Section 2.2). After the enzymatic reaction, 100 μl of a binding solution (1:100 dilution of the binding agent with the binding agent diluent) was added to each reaction and the reaction was performed at room temperature for 60 minutes. Fluorescence intensity was measured at an excitation of 485 nm and an emission of 528 nm using a Tecan Infinite M1000 microplate reader.
(§2) • 1) Dilute 20 μM FAM-Cyclic-3′, 5′-AMP stock 100-fold with PDE buffer to make a 200 nM solution. • 2) Add 25 μl of FAM-Cyclic-3′,5′-AMP (200 nM) to each well designated “Positive Control”, “Test Inhibitor”, and “Substrate Control”. • 3) Add 20 μl of PDE assay buffer to each well designated “Substrate Control” and 45 μl of PDE assay buffer to each well designated “Blank”. • 4) Add 5 μl of inhibitor solution to each well designated “Test Inhibitor”. For the wells labeled “Positive Control”, “Substrate Control” and “Blank”, add 5 μl of the same solution without inhibitor (inhibitor buffer). • 5) Thaw PDE on ice. Upon first thaw, briefly spin tube containing enzyme to recover the full contents of the tube. • 6) Dilute PDE4 in PDE buffer to 7.5 pg/μl (0.15 ng/reaction)*. Initiate reaction by adding 20 µl of PDE4 (7.5 pg/μl) to the wells designated “Positive Control” and “Test Inhibitor.” • 7) Incubate at room temperature for 1 hour.
(§3) • 1) Mix binding agent thoroughly and dilute binding agent 1:100 with binding agent diluent. • 2) Add 100 μl diluted binding agent to each microwell. Incubate at room temperature for 1 hour with slow shaking. • 3) Read the fluorescent polarization of the sample in a microtiter-plate reader equipped for the measurement of fluorescence polarization, capable of excitation at wavelengths ranging from 485±5 nm and detection of emitted light ranging from 528±10 nm. Blank value is subtracted from all other values. • 4) Data Analysis: PDE activity assays were performed in duplicate at each concentration. Fluorescence intensity is converted to fluorescence polarization using the Tecan Magellan6 software. The fluorescence polarization data were analyzed using the computer software, Graphpad Prism. The fluorescence polarization (FPt) in absence of the compound in each data set was defined as 100% activity. In the absence of PDE and the compound, the value of fluorescent polarization (FPb) in each data set was defined as 0% activity. The percent activity in the presence of the compound was calculated according to the following equation: % activity=(FP−FPb)/(FPt−FPb)×100%, where FP=the fluorescence polarization in the presence of the compound. The values of % activity versus a series of compound concentrations were then plotted using non-linear regression analysis of sigmoidal dose-response curve generated with the equation Y=B+(T−B)/1+10^(LogEC50−X)×Hill Slope), where Y=percent activity, B=minimum percent activity, T=maximum percent activity, X=logarithm of compound and Hill Slope=slope factor or Hill coefficient. The IC50 value was determined by the concentration causing a half-maximal percent activity.

[1] = Hepatocyte metabolism (stability in cryopreserved hepatocytes); details: human hepatocytes
Procedure: (§4) A 2.5 uL aliquot of 100 μM test compound was incubated with 247.5 uL of cryopreserved hepatocytes suspended in serum-free incubation medium at 1 million viable cells/mL. The mixture was incubated at 37° C. and shaken at 500 rpm for the designated time points (0.5, 5, 10, 15, 30, 60, 90, or 120 min). At each time point, 25 uL aliquot of incubation mixture was transferred to 125 uL of cold acetonitrile containing internal standard, followed by centrifugation for 30 min at 3,220 g. 100 uL of supernatant was mixed with 100 uL of distilled water for analysis by LC-MS/MS. Peak area ratios were determined from extracted ion chromatograms and percent recovery was calculated.

[2] = dog, in vivo
Description: (§5) HPLC Instrument: Shimsadzu (DGU-20A5R, Serial No: L20705621435 IX; LC-30AD Serial No: L20555611905 AE and L20555611816 AE; SIL-L30AC, Serial No: L20565605499 AE; Rack Changer II Serial No. L20585601125 SS; CTO20A: Serial No. L20205620413 CD; CBM-20A: Serial No. L20235636200 CD) • MS: AB API 5500 LC/MS/MS instrument (Serial No. EF221221812) • Column: Phenomenex Synergi 2.5 μm Polar-RP 100A. (50×3 mm) • Mobile Phase: (A) 5% Acetonitrile in Water (0.1% Formic acid); (B) 95% Acetonitrile in Water (0.1% Formic acid) • Samples: 50 μL of plasma sample+5 μL of blank solution+200 μL of acetonitrile for PPE (protein precipitation extraction).
(§6) The desired serial concentrations of working solutions were achieved by diluting stock solution of analyte with 50% acetonitrile in water solution. 5 μL of working solutions (5, 10, 20, 50, 100, 500, 1000, 5000, 10000 ng/mL) were added to 50 μL of the blank Beagle Dog plasma to achieve calibration standards of 0.5˜1000 ng/mL (0.5, 1, 2, 5, 10, 50, 100, 500, 1000 ng/mL) in a total volume of 55 μL. Five quality control samples at 1 ng/mL, 2 ng/mL, 5 ng/mL, 50 ng/mL and 800 ng/mL for plasma were prepared independently of those used for the calibration curves. These QC samples were prepared on the day of analysis in the same way as calibration standards.
(§7) 55 μL standards, 55 μL QC samples and 55 μL unknown samples 50 μL plasma with 5 μL blank solution) were added to 200 μL of acetonitrile containing IS mixture for precipitating protein respectively. Then the samples were vortexed for 30 s. After centrifugation at 4 degree Celsius, 3900 rpm for 15 min, the supernatant was diluted 3 times with water.

[3] = human, 1 µM
Procedure: as §4

PDE4C1 = PDE4C1 (Homo sapiens (Human), UniProt Q08493); test: PDE4 inhibition assay (fluorescence polarization), PDE4C1; assay type: biochemical; details: 10 μM
Procedure: as §1, §2, §3

SERT = SERT (Homo sapiens (Human), UniProt P31645); test: SERT inhibition assay (Neurotransmitter Transporter fluorescence uptake, stable 5HTT HEK293 cells); assay type: cell-based; details: n=6 ± SD
Procedure: SERT inhibition was measured using a Neruotransmitter Transportation Fluorescence assay. Briefly, stable 5HTT HEK293 cells were prepared in a 384 microwell plate (20,000 cells per 20 μL well). Compounds were prepared by in assay buffer (20 mM HEPES in HBSS, 0.1% BSA) at a top concentration of 1 μM. 10 doses of test compound (3-fold serial dilution) were added to the plated cells and incubated for 30 minutes at 37° C. 25 μL of dye solution (Molecular Devices Neurotransmitter Transporter Uptake Assay Kit) was added per well and incubated for 30 minutes at 37° C.

PDE4A1A = PDE4A1A (Homo sapiens (Human), UniProt P27815); test: PDE4 inhibition assay (fluorescence polarization), PDE4A1A; assay type: biochemical; details: 10 μM
Procedure: as §1, §2, §3

in vivo = details: beagle, dog
Description: as §5, §6, §7

PDE4D2 = PDE4D2 (Homo sapiens (Human), UniProt Q08499); test: PDE4 inhibition assay (fluorescence polarization), PDE4D2; assay type: biochemical; details: 10 μM
Procedure: as §1, §2, §3

in vitro = details: human hepatocytes
Procedure: as §4

PDE4A1A, sequence (P27815 other isoform, or with tags, fused parts or gaps): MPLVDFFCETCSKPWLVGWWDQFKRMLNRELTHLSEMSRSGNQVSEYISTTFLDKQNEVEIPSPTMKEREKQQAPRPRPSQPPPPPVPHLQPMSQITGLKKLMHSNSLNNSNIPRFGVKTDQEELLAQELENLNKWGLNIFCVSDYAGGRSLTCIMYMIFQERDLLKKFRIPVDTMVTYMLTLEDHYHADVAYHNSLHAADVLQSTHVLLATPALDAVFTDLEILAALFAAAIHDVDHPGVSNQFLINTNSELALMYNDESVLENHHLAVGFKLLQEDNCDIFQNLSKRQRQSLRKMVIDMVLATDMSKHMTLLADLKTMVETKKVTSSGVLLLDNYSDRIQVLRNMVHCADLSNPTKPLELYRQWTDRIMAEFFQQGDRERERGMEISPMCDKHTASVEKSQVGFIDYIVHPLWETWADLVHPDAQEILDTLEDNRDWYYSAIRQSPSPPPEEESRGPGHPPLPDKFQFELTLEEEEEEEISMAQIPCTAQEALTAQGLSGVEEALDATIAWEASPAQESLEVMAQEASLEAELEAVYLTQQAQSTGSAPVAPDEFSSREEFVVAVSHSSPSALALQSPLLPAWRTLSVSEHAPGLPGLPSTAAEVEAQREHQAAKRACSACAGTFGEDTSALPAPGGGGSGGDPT
PDE4C1, sequence (Q08493 whole entry): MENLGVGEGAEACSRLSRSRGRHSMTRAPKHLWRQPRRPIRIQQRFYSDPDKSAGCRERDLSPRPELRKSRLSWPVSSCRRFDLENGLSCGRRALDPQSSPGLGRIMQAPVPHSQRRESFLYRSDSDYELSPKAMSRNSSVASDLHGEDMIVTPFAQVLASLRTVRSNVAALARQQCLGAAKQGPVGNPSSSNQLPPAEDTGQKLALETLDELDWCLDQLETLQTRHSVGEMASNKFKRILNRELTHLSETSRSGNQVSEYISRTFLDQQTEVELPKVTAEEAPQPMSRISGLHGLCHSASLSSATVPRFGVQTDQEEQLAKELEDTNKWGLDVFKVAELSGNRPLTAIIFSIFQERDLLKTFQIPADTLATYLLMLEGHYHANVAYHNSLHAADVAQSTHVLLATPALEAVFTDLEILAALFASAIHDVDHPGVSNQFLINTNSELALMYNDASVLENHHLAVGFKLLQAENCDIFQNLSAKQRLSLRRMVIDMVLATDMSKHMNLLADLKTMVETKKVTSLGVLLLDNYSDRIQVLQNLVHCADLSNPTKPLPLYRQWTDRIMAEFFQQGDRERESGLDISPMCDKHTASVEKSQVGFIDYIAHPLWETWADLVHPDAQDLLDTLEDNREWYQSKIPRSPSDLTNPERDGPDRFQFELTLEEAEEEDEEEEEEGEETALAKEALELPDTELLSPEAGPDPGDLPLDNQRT
PDE4B2, sequence (Q07343 other isoform, or with tags, fused parts or gaps): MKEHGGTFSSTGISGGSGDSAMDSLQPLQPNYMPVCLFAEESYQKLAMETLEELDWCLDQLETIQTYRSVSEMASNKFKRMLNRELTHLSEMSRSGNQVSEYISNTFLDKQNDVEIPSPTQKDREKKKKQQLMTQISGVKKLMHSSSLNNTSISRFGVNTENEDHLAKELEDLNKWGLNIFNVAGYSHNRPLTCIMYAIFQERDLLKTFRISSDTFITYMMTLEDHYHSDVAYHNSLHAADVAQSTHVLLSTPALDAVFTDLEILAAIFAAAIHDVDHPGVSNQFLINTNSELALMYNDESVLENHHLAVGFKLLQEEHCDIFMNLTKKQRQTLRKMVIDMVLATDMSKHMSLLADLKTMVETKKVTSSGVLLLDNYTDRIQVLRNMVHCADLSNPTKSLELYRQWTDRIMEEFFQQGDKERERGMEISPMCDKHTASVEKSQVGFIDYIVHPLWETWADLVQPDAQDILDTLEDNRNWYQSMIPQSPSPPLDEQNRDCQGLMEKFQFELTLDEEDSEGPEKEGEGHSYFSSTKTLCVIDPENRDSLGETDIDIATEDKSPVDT
PDE4D2, sequence (Q08499 303-809): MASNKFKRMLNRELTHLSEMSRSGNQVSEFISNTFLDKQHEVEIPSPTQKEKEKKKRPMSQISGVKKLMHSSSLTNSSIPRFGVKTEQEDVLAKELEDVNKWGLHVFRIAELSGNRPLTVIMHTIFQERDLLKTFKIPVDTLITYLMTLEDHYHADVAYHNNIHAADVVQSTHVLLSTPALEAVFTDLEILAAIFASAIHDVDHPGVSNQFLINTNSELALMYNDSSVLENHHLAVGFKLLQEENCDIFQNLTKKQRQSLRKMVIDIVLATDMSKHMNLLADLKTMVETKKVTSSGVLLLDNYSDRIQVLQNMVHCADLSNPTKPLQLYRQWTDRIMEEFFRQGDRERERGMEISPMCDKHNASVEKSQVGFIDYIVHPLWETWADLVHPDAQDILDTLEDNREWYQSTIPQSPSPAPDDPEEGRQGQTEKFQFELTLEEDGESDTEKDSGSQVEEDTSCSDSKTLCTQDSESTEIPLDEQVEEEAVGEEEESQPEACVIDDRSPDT

COc1ccc([C@@]23CC[C@H](O)C[C@@H]2N(C)CC3)cc1OC [Compound 019, (3aS,6S,7aS)-3a-(3,4-dimethoxyphenyl)-1-methyloctahydro-1H-indol-6-ol]
behavioral activity (in words) (mouse behavior; mice, 3 mg/kg): low behaviorally activity
antidepressant signature, subclass analysis (mouse behavior; mice, 100 mg/kg): a mix of SSRI and SNRI
signature in class and subclass (mouse behavior; mice, 10, 30 and 100 mg/kg): mixed antidepressant and psychostimulant-like signatures
PDE4B2 % INH @ 10 μM (PDE4B2): 0%
PDE4B2 % INH @ 10 μM (PDE4B2; listed as Compound 19): no more than 5%
Extraction Ratio [1]: <0.10
t1/2 [1]: >2 h
AUC_% Extrap_obs ([2]; beagle, iv, 2 mg/kg): 0.52%
AUClast/D ([2]; beagle, iv, 2 mg/kg): 1560
Cl_obs ([2]; beagle, iv, 2 mg/kg): 10.82 mL/min/kg
AUC_% Extrap_obs ([2]; beagle, po, 10 mg/kg): 0.64%
AUClast/D ([2]; beagle, po, 10 mg/kg): 1473.2
F ([2]; beagle, po, 10 mg/kg): 94.6%
half-life compared to Compound 018 ([2]; iv): about three times greater
% QH [3]: <10%
CLHB [3]: <2 mL/min/kg
PDE4C1 % INH @ 10 μM (PDE4C1): 3%
inhibition at 10 µM (PDE4C1; read-out: PDE4C1 % INH @ 10 μM): ≤ 5%
IC50 (SERT): 10.6 ± 10.1 nM
PDE4A1A % INH @ 10 μM (PDE4A1A): 4%
inhibition at 10 µM (PDE4A1A; read-out: PDE4A1A % INH @ 10 μM): ≤ 5%
AUC(0-inf) (in vivo; iv, 2 mg/kg): 3140 ng·h/mL
AUC(0-t) (in vivo; iv, 2 mg/kg): 3120 ng·h/mL
C0 (in vivo; iv, 2 mg/kg): 1530 ng/mL
MRT inf (in vivo; iv, 2 mg/kg): 3.86 h
half-life (in vivo; iv, 2 mg/kg): 3.38 h
AUC(0-inf) (in vivo; po, 10 mg/kg): 14800 ng·h/mL
AUC(0-t) (in vivo; po, 10 mg/kg): 14700 ng·h/mL
Cmax (in vivo; po, 10 mg/kg): 2550 ng/mL
MRT inf (in vivo; po, 10 mg/kg): 4.85 h
Tmax (in vivo; po, 10 mg/kg): 0.83 h
half-life (in vivo; po, 10 mg/kg): 3.33 h
PDE4D2 %INH @ 10 μM (PDE4D2): 3%
inhibition at 10 µM (PDE4D2; read-out: PDE4D2 %INH @ 10 μM): ≤ 5%
CLint scaled at 1 µM (in vitro): < 2 mL/min/kg
half-life at 1 µM (in vitro): > 2 h
hepatocyte CLint at 1 µM (in vitro): < 1 µL/min/1e6 cells
